From patent publication US11884675B2, “Heterocyclic compounds as triggering receptor expressed on myeloid cells 2 agonists and methods of use” (AMGEN INC., priority 2020, dated 2024)

Target: hTREM2 (Homo sapiens, UniProt Q9NZC2)
Assay: TREM2 activity by cellular Syk phosphorylation (AlphaScreen/AlphaLISA) in TREM2/DAP12-HEK cells, used for Examples 1-305
Format: cell-based
Parameters: expressed in transfected cells
Conditions: HEK293 Cells
Description: In vitro Measurement of Triggering Receptor Expressed on Myeloid Cells 2 activity using cellular phosphorylation of Spleen Tyrosine Kinase (“Syk”) Assays used for Examples 1-305
Pharmacological measurements of TREM2 signaling through DAP12 were made with TREM2 and DAP12 overexpressing HEK293 cells stable cell lines that had been single-cell cloned (“TREM2/DAP12-HEK”). The readout of the TREM2 signaling utilized Perkin Elmer AlphaScreen/AlphaLISA technology monitoring the phosphorylation levels of the Syk kinase. TREM2/DAP12-HEK cell lines were cultured in DMEM-F12 (Corning 10-092-CM) supplemented with 1X Penicillin/Streptomycin (Corning 30-002-CI), 1X GlutaMAX (Gibco 35050-061), and 10% Fetal Bovine Serum (Life Technologies 10099) referred to as “HEK Culture Medium”. Suspensions of TREM2/DAP12-HEK cells were prepared in HEK Culture Medium and dispensed into 384-well poly-D-lysine coated microplates (Corning 354661) at a density of 20,000 cells/well using a Multidrop Combi peristaltic microplate dispenser (Thermo), 25 μL volume of cell suspension/well. Plates containing cells were then incubated for 20 hours in a humidified cell culture incubator at 37° C. with 5% CO2 (Thermo). After incubation, culture medium was removed from all wells of each microplate and replaced with 20 μL of “Assay Buffer” comprised of DMEM-F12 (Corning 10-092-CM) supplemented with 1X Penicillin/Streptomycin (Corning 30-002-CI) and 0.1% Pluronic F-68 Polyol (MP Biomedical 092750049) using a Bravo 384-well pipette-based liquid handling system (Agilent). Assay Buffer contained diluted test articles (in 1% final DMSO concentration for compounds) or 100 nM anti-human/mouse TREM2 antibody (R&D Systems MAB17291) as a positive control, or 100 nM or rat IgG2B isotype Ab as a negative control (R&D Systems MAB0061). The plates were incubated with test articles and controls for 45 minutes at room temperature and then the medium was aspirated/removed from each well of the plates. A Multidrop Combi peristaltic liquid handler (Thermo) was used to dispense 15 μL/well of “Cell Lysis Immunoassay Buffer”. The Cell Lysis Immunoassay Buffer contained M-PER Mammalian Protein Extraction Reagent (Pierce/ThermoFisher 78505), 1X Halt Phosphatase Inhibitor Cocktail (ThermoFisher #78427), 0.1875 nM anti-phospho-Syk (Tyr525/526) (C87C1) rabbit mAb (Cell Signaling Technologies catalog #2710), and 1.5 nM biotinylated Mouse anti-human Syk (4D10) antibody (BD Biosciences, catalog #624008). Plates were incubated for 1 hour at room temperature after the addition of the Cell Lysis Immunoassay Buffer. The Multidrop Combi liquid handler was used to dispense 15 μL of AlphaScreen Acceptor Bead Solution containing 7.5 μg/mL anti-rabbit IgG (Fc specific) AlphaLISA Acceptor Beads (Perkin Elmer AL104R) in 1X Immunoassay buffer (Perkin Elmer AL000F) to each well of the microplates. The plates were incubated for 2 hours at room temperature. Following the incubation with the AlphaLISA Acceptor Bead Solution, a Multidrop Combi liquid handler (Thermo) was used to dispense 15 μL of AlphaScreen Donor Bead Solution containing 30 μg/mL of AlphaScreen Streptavidin Donor beads (Perkin Elmer 6760002B) in 1X Immunoassay buffer (Perkin Elmer AL000F) to each well of the microplates. Microplates were incubated for 2 hours protected from light sources as the AlphaScreen reagents are light sensitive. Once the final incubation was completed, an AlphaScreen signal was acquired from the donor and acceptor beads using an Envision high throughput multi-modal microplate reader (Perkin Elmer) calibrated to the plate type with the AlphaScreen mirror and filter-set in 384-well mode, 680 nanometer excitation wavelength. The total measurement time per well was 550 milliseconds with a 180 millisecond excitation time. […]

hTREM2, sequence (Q9NZC2 19-230): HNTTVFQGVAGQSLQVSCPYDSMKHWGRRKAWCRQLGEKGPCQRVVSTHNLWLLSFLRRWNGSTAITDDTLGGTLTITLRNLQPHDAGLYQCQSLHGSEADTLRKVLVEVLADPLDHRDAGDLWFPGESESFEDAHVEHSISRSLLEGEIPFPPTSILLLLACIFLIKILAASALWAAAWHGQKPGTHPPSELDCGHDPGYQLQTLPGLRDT
hTREM2, sequence (O43914 22-113 partner): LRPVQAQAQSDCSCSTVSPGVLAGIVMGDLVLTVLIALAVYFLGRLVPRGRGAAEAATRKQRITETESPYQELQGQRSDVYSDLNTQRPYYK

| EC50 [nM] | hTREM2 Emax | SMILES |
| --- | --- | --- |
| ≤ 50 | +++ (Emax>150 and ≤250) | Cc1nc2nc(N3CCO[C@@H](c4cnn(C)c4)C3)nc(-c3cc(F)c(F)c(F)c3)c2nc1C [Example 18, 6,7-dimethyl-2-((2S)-2-(1-methyl-1H-pyrazol-4-yl)-4-morpholinyl)-4-(3,4,5-trifluorophenyl)pteridine] |
| 500 to 3000 | ++ (Emax>100 and ≤150) | Cc1nc2nc([C@@H]3CCO[C@H](c4cnn(C)c4)C3)cc(-c3ccc(F)cc3F)c2nc1C [Example 255, 8-(2,4-difluorophenyl)-2,3-dimethyl-6-((2S,4R)-2-(1-methyl-1H-pyrazol-4-yl)tetrahydro-2H-pyran-4-yl)pyrido[2,3-b]pyrazine] |
| ≤ 50 | +++ (Emax>150 and ≤250) | Cc1nc2nc(N3CCO[C@@H](c4cnn(C5CC5)c4)C3)nc(-c3ccc(C(F)(F)F)nc3)c2nc1C [Example 298, (S)-2-(1-cyclopropyl-1H-pyrazol-4-yl)-4-(6,7-dimethyl-4-(6-(trifluoromethyl)pyridin-3-yl)pteridin-2-yl)morpholine] |
| 500 to 3000 | +++ (Emax>150 and ≤250) | Cc1nc2nc([C@@H]3CCO[C@H](c4cnn(C)c4)C3)cc(-c3ccc(Cl)cc3F)c2nc1C [Example 250, 8-(4-chloro-2-fluorophenyl)-2,3-dimethyl-6-((2S,4R)-2-(1-methyl-1H-pyrazol-4-yl)tetrahydro-2H-pyran-4-yl)pyrido[2,3-b]pyrazine] |
| 3000 to 100000 | +++ (Emax>150 and ≤250) | Cn1cc([C@H]2CN(c3cc4nccnc4c(-c4ccc(Cl)cc4F)n3)CCO2)cn1 [Example 233, (S)-4-(5-(4-chloro-2-fluorophenyl)pyrido[3,4-b]pyrazin-7-yl)-2-(1-methyl-1H-pyrazol-4-yl)morpholine] |
| ≤ 50 | +++ (Emax>150 and ≤250) | Cc1cc2c(-c3ccc(F)cc3F)nc([C@H]3CCO[C@@H](c4cnn(C)c4)C3)nc2nc1C (single isomer, unassigned) [Example 201] |
| 500 to 3000 | +++ (Emax>150 and ≤250) | Cc1cnc2c(-c3ccc(Cl)cc3F)nc([C@@H]3CCO[C@H](c4cnn(C)c4)C3)cc2n1 [Example 248, 5-(4-chloro-2-fluorophenyl)-2-methyl-7-((2S,4R)-2-(1-methyl-1H-pyrazol-4-yl)tetrahydro-2H-pyran-4-yl)pyrido[3,4-b] pyrazine] |
| ≤ 50 | +++ (Emax>150 and ≤250) | Cc1cc2c(-c3ccc(Cl)cc3F)nc([C@H]3CCO[C@@H](c4cnn(C)c4)C3)nc2nc1C (single isomer, unassigned) [Example 224] |
| 3000 to 100000 | +++ (Emax>150 and ≤250) | Cc1cnc2c(-c3ccc(Cl)cc3F)nc([C@H]3CCO[C@H](c4cnn(C)c4)C3)cc2n1 [Example 246, 5-(4-chloro-2-fluorophenyl)-2-methyl-7-((2S,4S)-2-(1-methyl-1H-pyrazol-4-yl)tetrahydro-2H-pyran-4-yl)pyrido[3,4-b] pyrazine] |
| 50 to 500 | ++++ (Emax>250) | Cc1nc2nc(C3CCO[C@H](c4cnn(C)c4)C3)nc(-c3ccc(Cl)cc3F)c2nc1C (stereo in doubt) [Example 276, 4-(4-chloro-2-fluorophenyl)-6,7-dimethyl-2-((2S,4R)-2-(1-methyl-1H-pyrazol-4-yl)tetrahydro-2H-pyran-4-yl)pteridine] |
| 50 to 500 | +++ (Emax>150 and ≤250) | Cc1cc2c(-c3ccc(Cl)cc3F)nc([C@@H]3CCO[C@@H](c4cnn(C)c4)C3)nc2nc1C (single isomer, unassigned) [Example 225] |
| ≤ 50 | ++++ (Emax>250) | Cc1ccc2c(-c3ccc(Cl)cc3F)nc([C@H]3CCO[C@@H](c4cnn(C5CC5)c4)C3)nc2n1 (single isomer, unassigned) [Example 197] |
| 50 to 500 | ++++ (Emax>250) | CCc1ccc2c(-c3ccc(F)cc3F)nc(N3CCO[C@@H](c4cnn(C)c4)C3)nc2n1 [Example 167, 4-(2,4-difluorophenyl)-7-ethyl-2((2S)-2-(1-methyl-1H-pyrazol-4-yl)-4-morpholinyl) pyrido[2,3-d]pyrimidine] |
| 50 to 500 | +++ (Emax>150 and ≤250) | Cc1ccc2c(-c3ccc(F)cc3F)nc([C@@H]3CCO[C@H](c4cnn(C)c4)C3)nc2n1 [Example 290, 4-(2,4-difluorophenyl)-7-methyl-2-((2S,4R)-2-(1-methyl-1H-pyrazol-4-yl)tetrahydro-2H-pyran-4-yl)pyrido[2,3-d] pyrimidine] |

Second part, the molecule before the results:

| SMILES | EC50 [nM] | hTREM2 Emax |
| --- | --- | --- |
| Cc1cnc2c(-c3ccc(Cl)cc3F)nc(N3CCOC(C4CCOC4)C3)nc2n1 (stereo not shown) [Example 5, 4-(4-chloro-2-fluorophenyl)-7-methyl-2-(2-(tetrahydro-3-furanyl)-4-morpholinyl)pteridine] | 500 to 3000 | +++ (Emax>150 and ≤250) |
| CCc1ccc2c(-c3ccc(Cl)cc3F)nc(N3CCO[C@@H](c4cnn(C)c4)C3)cc2n1 [Example 238, (S)-4-(5-(4-chloro-2-fluorophenyl)-2-ethyl-1,6-naphthyridin-7-yl)-2-(1-methyl-1H-pyrazol-4-yl)morpholine] | 3000 to 100000 | + (Emax>45 and ≤100) |
| Cc1nc2nc(N3CCO[C@@H](c4cnn(C)c4)C3)nc(N3CCC(F)(F)C3)c2nc1C [Example 71, 4-(3,3-difluoro-1-pyrrolidinyl)-6,7-dimethyl-2-((2S)-2-(1-methyl-1H-pyrazol-4-yl)-4-morpholinyl)pteridine] | 3000 to 100000 | ++ (Emax>100 and ≤150) |
| Cc1nc2nc(N3CCO[C@@H](c4cnn(C)c4)C3)nc(N3CC(C(F)(F)F)C3)c2nc1C [Example 30, 6,7-dimethyl-2-((2S)-2-(1-methyl-1H-pyrazol-4-yl)-4-morpholinyl)-4-(3-(trifluoromethyl)-1-azetidinyl)pteridine] | 500 to 3000 | ++ (Emax>100 and ≤150) |
| Cc1cc([C@H]2CN(c3nc4nc(C)cnc4c([C@H]4C[C@H](C(F)(F)F)C4)n3)CCO2)ccn1 [Example 16, 7-methyl-2-((2S)-2-(2-methyl-4-pyridinyl)-4-morpholinyl)-4-(trans-3-(trifluoromethyl)cyclobutyl)pteridine] | ≤ 50 | + (Emax>45 and ≤100) |
| Cc1ccc2c(-c3ccc(Cl)cc3F)nc(N3CCO[C@@H](c4cnn(C5CC5)c4)C3)cc2n1 [Example 150, 5-(4-chloro-2-fluorophenyl)-7-((2S)-2-(1-cyclopropyl-1H-pyrazol-4-yl)-4-morpholinyl)-2-methyl-1,6-naphthyridine] | 50 to 500 | ++++ (Emax>250) |
| Cc1cc([C@H]2CN(c3nc4nc(C)cnc4c([C@H]4C[C@@H](C(F)(F)F)C4)n3)CCO2)cnn1 [Example 280, (S)-4-(7-methyl-4-((1s,3R)-3-(trifluoromethyl)cyclobutyl)pteridin-2-yl)-2-(6-methylpyridazin-4-yl)morpholine] | 500 to 3000 | +++ (Emax>150 and ≤250) |
| Cc1nc2nc(N3CCO[C@@H](c4cnn(C)c4)C3)nc(N3C[C@@H]4[C@H](C3)C4(F)F)c2nc1C [Example 27, 4-((1R,5S)-6,6-difluoro-3-azabicyclo[3.1.0]hexan-3-yl)-6,7-dimethyl-2-((2S)-2-(1-methyl-1H-pyrazol-4-yl)-4-morpholinyl)pteridine] | 500 to 3000 | ++ (Emax>100 and ≤150) |
| Cc1nc2nc(N3CCO[C@@H](c4cnn(C)c4)C3)nc([C@H]3CC[C@@H](C)CC3)c2nc1C [Example 135, 6,7-dimethyl-4-(cis-4-methylcyclohexyl)-2-((2S)-2-(1-methyl-1H-pyrazol-4-yl)-4-morpholinyl)pteridine] | 50 to 500 | + (Emax>45 and ≤100) |
